Laboratory results taken from patent US4999366A, “Isoxazolidine-3,5-diones, pharmaceutical compositions and method of treatment” (The North Carolina Central Univ., priority 1990, dated 1991).
Where two headings read alike, the source gives them in different places.

Columns and labels:
serum cholesterol [1] = assay: Serum cholesterol in normal CF1 mice (Example 10); assay type: in vivo, CF1 male mice; settings: Mus musculus, 20 mg/kg/day ip
Procedure: (§1) The ten compounds listed in Table II below were tested for their hypolipidemic activity in CF1 mice.
(§2) Compounds A-J as defined above, were suspended in an aqueous 1percent carboxymethylcellulose (CMC) solution and homogenized. Each of the so prepared compounds were administered to a group of six CF1 male mice, each weighing approximately 25 grams, intraperitioneally for 16 days. Each of these compounds were provided in a dosage of 20 mg/kg/day ip. On Days 9 and 16 blood was obtained by tail vein bleeding. The blood serum so obtained was separated by centrifugation for three minutes. Serum cholesterol levels were determined by a modification of the Liebermann-Burchard reaction (Ness, Clin. Chim. Acta., Vol. 10, 229[1964]). Serum triglyceride levels were determined on Day 16 by use of the Fisher, Hycel Triglyceride Test Kit.
(§3) In addition to the above-described treated mice, an untreated control group of six mice were similarly tested on Days 9 and 16 to determine their serum cholesterol and trigylceride blood levels. Based on the results obtained for the untreated control group, the percent control, based on serum cholesterol and serum triglyceride levels of the treated mice compared to the untreated mice, was obtained. Table III reports this percent control, including standard deviation, indicating the level of confidence of these numbers.

serum triglyceride [2] = assay: Serum triglyceride in normal CF1 mice (Example 10); assay type: in vivo, CF1 male mice; settings: Mus musculus, 384 h, 20 mg/kg/day ip, Day 16, ± standard deviation, read-out: Serum Triglyceride, Day 16 (percent control)
Procedure: as §1, §2, §3

serum cholesterol [3] = assay: Serum cholesterol in hyperlipidemic mice on atherogenic diet (Example 11); assay type: in vivo, CF1 male mice; settings: hyperlipidemic CF1 mice, 20 mg/kg/day ip, Day 14, from 375 mg %
Procedure: (§4) A group of six CF^1 male mice (about 25 g) was placed on a commercial diet (U.S. Biochemical Corporation BAsal Atherogenic Test Diet) which produced a "hyperlipidemic" state. That is, the average serum cholesterol level in the group of treated mice was raised from 122 to 375 mg % and triglyceride levels were raised from 137 to 367 mg/dl.
(§5) Upon reaching these hyperlipidemic levels, the mice were administered Compound D in a concentration of 20 mg/kg/day intraperitoneally for 14 days while continuing the diet. On Day 14, serum cholesterol and serum triglyceride levels were measured in accordance with the procedure of Example 10.

serum triglyceride [4] = assay: Serum triglyceride in hyperlipidemic mice on atherogenic diet (Example 11); assay type: in vivo, CF1 male mice; settings: hyperlipidemic CF1 mice, 20 mg/kg/day ip, Day 14, from 367 mg/dl
Procedure: as §4, §5

serum cholesterol [5] = assay: Serum cholesterol in normal rats (Example 12); assay type: in vivo, Sprague-Dawley male rats; settings: 20 mg/kg/day orally
Procedure: (§6) A solution of Compound D, 2-(3,4,5-trimethoxybenzoyl)-4,4-diethylisoxazolidine-3,5-dione, was suspended in an aqueous solution of 1% CMC, homogenized and administered orally to six Sprague-Dawley male rats, which each weighed approximately 350 grams. Similarly, six Sprague-Dawley male rats of approximately the same weight were administered similar volumes of the same aqueous 1% CMC solution without the active agent, Compound D, also orally. In each case, administration was by intubation needle at 20 mg/kg/day for 14 days. In addition, as a control, a similar group of six male Sprague-Dawley rats were untreated.
(§7) On Days 7 and 14, blood was obtained from each of the rats of the three groups by tail vein bleeding. The blood obtained was separated by centrifugation for three minutes. Serum cholesterol and triglyceride levels were determined in accordance with the procedure of Example 10.

serum triglyceride [6] = assay: Serum triglyceride in normal rats (Example 12); assay type: in vivo, Sprague-Dawley male rats; settings: 20 mg/kg/day orally
Procedure: as §6, §7

plasma lipid level = settings: rats; cited from earlier work
[7] = 216 h, Day 9, ± standard deviation, read-out: Serum Cholesterol, Day 9 (percent control)
[8] = 384 h, Day 16, ± standard deviation, read-out: Serum Cholesterol, Day 16 (percent control)

Row | SMILES | response vs control in vivo at 20 mg/kg/day (serum cholesterol [1]; [7]) [%] | response vs control in vivo at 20 mg/kg/day (serum cholesterol [1]; [8]) [%] | response vs control in vivo at 20 mg/kg/day (serum triglyceride [2]) [%] | other results
1 | C=C(C)N1OC(=O)C(CC)(CC)C1=O [A] | 70 ± 7 | 75 ± 4 | 71 ± 6 | –
2 | C=C(c1ccccc1)N1OC(=O)C(CC)(CC)C1=O [B, 2-(1-phenylethenyl)-4,4-diethylisoxazolidine-3,5-dione] | 71 ± 5 | 63 ± 6 | 71 ± 4 | –
3 | CCC1(CC)C(=O)ON(C2(N3OC(=O)C(CC)(CC)C3=O)CCCCC2)C1=O [C, 1,1-bis-[2-(4,4-diethylisoxazolidine-3,5-dione)]cyclohexane] | 86 ± 7 | 73 ± 7 | 77 ± 9 | –
4 | CCC1(CC)C(=O)ON(C(=O)c2cc(OC)c(OC)c(OC)c2)C1=O [Compound D, 2-(3,4,5-trimethoxybenzoyl)-4,4-diethylisoxazolidine-3,5-dione] | 82 ± 6 | 51 ± 5 | 66 ± 6 | serum cholesterol level after treatment (serum cholesterol [3]): 150 mg %; serum cholesterol remaining, percent of pre-treatment level (serum cholesterol [3]): 40%; serum triglyceride level after treatment (serum triglyceride [4]): 187 mg/dL; serum triglyceride level remaining, percent of pre-treatment level (serum triglyceride [4]): 51%; serum cholesterol level compared to control rats, Day 7 (serum cholesterol [5]; Day 7): 77%; serum cholesterol level compared to control rats, Day 14 (serum cholesterol [5]; Day 14): 61%; average serum triglyceride level compared to control, Day 7 (serum triglyceride [6]; Day 7): 64%; serum triglyceride level compared to control, Day 14 (serum triglyceride [6]; Day 14): 43%
5 | CCC1(CC)C(=O)ON(C(=O)c2ccccc2)C1=O [E, 2-benzoyl-4,4-diethylisoxazolidine-3,5-dione] | 77 ± 5 | 53 ± 6 | 63 ± 7 | –
6 | CCC1(CC)C(=O)ON(C(C)(C)N2OC(=O)C(CC)(CC)C2=O)C1=O [F, 2,2-bis-[2-(4,4-diethylisoxazolidine-3,5-dione)]propane] | 95 ± 4 | 57 ± 6 | 68 ± 8 | –
7 | CCC1(CC)C(=O)ON(C(=O)c2ccc(OC)c(OC)c2)C1=O [G, 2-(3,4-dimethoxybenzoyl)-4,4-diethylisoxazolidine-3,5-dione] | 81 | 77 | 84 | –
8 | CCC1(CC)C(=O)ON(C(=O)c2ccc(OC)cc2)C1=O [H, 2-(4-methoxybenzoyl)-4,4-diethylisoxazolidine-3,5-dione] | 89 | 62 | 63 | –
9 | CCC1(CC)C(=O)ON(C(=O)c2ccc(C)cc2)C1=O [I, 2-(4-methylbenzoyl)-4,4-diethylisoxazolidine-3,5-dione] | 73 | 46 | 86 | –
10 | CCC1(CC)C(=O)ON(C(=O)c2ccc(Cl)cc2)C1=O [J, 2-(4-chlorobenzoyl)-4,4-diethylisoxazolidine-3,5-dione] | 64 | 45 | 76 | –
11 | O=C(O)c1cc(=O)[nH]c(=O)[nH]1 [orotic acid] | – | – | – | plasma lipid level (plasma lipid level): decrease the plasma lipid level in rats
